From article PMC9112895, “Selective Inhibition of Plasmodium falciparum ATPase 6 by Artemisinins and Identification of New Classes of Inhibitors after Expression in Yeast” (Antimicrobial Agents and Chemotherapy, 2022) come the findings set out here.

The test addresses T1, L263E PfATP6 (Plasmodium falciparum, UniProt Q08853, L263E).
T1 construct: expressed in transfected cells; host or cells: Saccharomyces cerevisiae K667-derived strain
T1 sequence (Q08853 1-1228 L263E): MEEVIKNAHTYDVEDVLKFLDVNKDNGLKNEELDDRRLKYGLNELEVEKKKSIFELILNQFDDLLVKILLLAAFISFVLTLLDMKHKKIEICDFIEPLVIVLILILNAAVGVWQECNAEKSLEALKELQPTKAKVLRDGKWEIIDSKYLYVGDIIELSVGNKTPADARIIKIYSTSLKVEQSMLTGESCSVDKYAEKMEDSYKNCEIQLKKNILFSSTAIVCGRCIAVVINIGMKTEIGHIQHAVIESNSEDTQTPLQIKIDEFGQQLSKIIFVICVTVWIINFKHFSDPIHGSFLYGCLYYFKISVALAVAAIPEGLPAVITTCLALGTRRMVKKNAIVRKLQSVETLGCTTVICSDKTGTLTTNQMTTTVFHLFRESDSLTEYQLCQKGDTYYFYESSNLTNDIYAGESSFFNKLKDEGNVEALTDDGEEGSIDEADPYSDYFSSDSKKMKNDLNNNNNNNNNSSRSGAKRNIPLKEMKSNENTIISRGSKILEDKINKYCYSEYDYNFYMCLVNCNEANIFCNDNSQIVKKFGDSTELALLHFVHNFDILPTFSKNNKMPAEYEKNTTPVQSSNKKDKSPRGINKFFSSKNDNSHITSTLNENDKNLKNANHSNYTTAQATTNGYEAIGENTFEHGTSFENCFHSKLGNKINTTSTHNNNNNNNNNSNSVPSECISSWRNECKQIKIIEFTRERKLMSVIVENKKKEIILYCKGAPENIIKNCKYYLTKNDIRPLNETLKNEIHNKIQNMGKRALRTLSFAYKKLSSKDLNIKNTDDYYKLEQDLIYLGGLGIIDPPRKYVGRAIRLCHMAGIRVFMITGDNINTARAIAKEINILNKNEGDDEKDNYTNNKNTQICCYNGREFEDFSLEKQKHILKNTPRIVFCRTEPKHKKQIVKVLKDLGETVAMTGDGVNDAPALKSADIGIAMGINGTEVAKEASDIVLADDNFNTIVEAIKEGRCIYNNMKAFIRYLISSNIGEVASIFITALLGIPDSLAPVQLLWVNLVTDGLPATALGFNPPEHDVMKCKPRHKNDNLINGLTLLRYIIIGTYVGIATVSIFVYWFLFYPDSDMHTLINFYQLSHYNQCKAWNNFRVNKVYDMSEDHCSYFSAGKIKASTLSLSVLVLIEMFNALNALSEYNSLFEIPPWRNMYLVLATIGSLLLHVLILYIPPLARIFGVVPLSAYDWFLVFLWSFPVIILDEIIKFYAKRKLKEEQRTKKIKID
The experiment in a line: Yeast whole-cell assay, PfATP6 L263E mutant. It is filed as cell-based. The settings on record: L263 mutant; read-out: IC50 (mean ± SD). On the procedure: Yeast transformations were performed using the method described by Gietz and Schiestl ([48]), and transformants were selected by an uracil auxotrophic marker. Transformations were confirmed by colony PCR. Both K667 and K667Δpdr5::HIS were transformed with the following plasmids: pUGpd plasmid as a vector-only control (derived from pRS316 [49]); br434 plasmid (derived from pRS316 [50]) containing the SERCA1a coding region from rabbit skeletal fast-twitch muscle (pbr434-SERCA1a); and pUGpd containing the yeast-optimized coding region of PfATP6 from Plasmodium falciparum (pUGpd-PfATP6). Site-directed mutagenesis was performed on the SERCA1a coding region to produce the mutation E255L in the protein. Mutations were also introduced into the PfATP6 coding region to produce mutations L263E, A623E, and S769N and the double mutation A623E/S769N ([13]).
The screening assay used here was developed from the protocol used by Pulcini et al. ([13]). […] The optimal calcium concentration was periodically monitored and, if necessary, adjusted using a calcium concentration range of 10 to 30 mM. […] The yeast growth was estimated from the absorbance at 620 nm in a Tecan plate reader. […] The data collected were analyzed using GraphPad Prism v9.0 (GraphPad software, San Diego, CA, U.S.A).

By IC50 is commonly meant the concentration needed to halve the response being measured. For the molecule `CC(=O)C1=C(O)[C@@H]2[C@H]3c4c[nH]c5cccc(c45)C[C@H]3C(C)(C)N2C1=O` [CPA, cyclopiazonic acid], the IC50 was found to be 5.21 µM.
